Reference: patent US20140259191A1, “FISH ANESTHETIC AND METHOD” (AQUA-MOR TECHNOLOGIES LTD., priority 2011, published 2014)

What was measured:
[1] = tested on: fish; assay: Exposure of fish to linalool at different concentrations and times (survival, anesthesia); assay type: in vivo
Text: As will be appreciated by persons skilled in the art, for a given type of aquatic organism of a given size, there is an inverse (though not necessarily linear) relationship between the concentration of linalool in the water and the amount of time the organism needs to be exposed to the linalool in order to achieve sedation or anesthetization, and similarly there is an inverse (though not necessarily linear) relationship between the linalool concentration and the amount of time an organism may be exposed to the linalool in order before death occurs. […] On the other hand, the same fish were unaffected by exposure to 25 ppm linalool, even for long periods of time.

[2] = tested on: Ramirez fish; assay: Anesthesia of Ramirez fish by linalool or Ho Wood oil added to tank water; assay type: in vivo
Method: (§1) A one year old koi fish of body length 11 cm and which appeared to be healthy was placed in a 4 liter tank containing water at 25° C. and in which the water was circulated by means of aeration. A liquid a mixture containing 1 wt. % synthetic linalool (1 wt. % linalool, 5 wt. % 14R, 2 wt. % AF80 and 92 wt. % water) was added to the tank and manually mixed with the water so that the concentration of linalool in the water was 50 ppm. This was regarding as the starting time of the experiment; thereafter, observations were made regularly to determine the behavior of the fish in water. This continued until no response to external stimulation and complete loss of equilibrium were observed, at which point the fish was transferred to a recovery tank containing fresh water. The fish was placed near the air pump, and the time until the fish again swam and responded normally to external stimulation was recorded.
This experiment repeated the experiment of Example 1, using three goldfish (Carassius auratus auratus, average body length 12.5 cm) and five Ramirez fish (Mikrogeophagus ramirezi, body length 3.5-4 cm). All fishes appeared to be healthy. The goldfish tank held 4 liters of water and the tank holding the Ramirez fish one liter.
The experiment of example 9 was repeated, this time using five nine-month old Ramirez fish (M. ramirezi) in a one-liter tank. The respective weights were 0.8 g, 0.75 g, 0.7 g, 0.85 g and 0.75 g and the respective body lengths were 3.5 cm, 3.5 cm, 3 cm, 4 cm and 3 cm. The water temperature was 26° C. and the pH was 7. The fish became relaxed 2 minutes after addition of linalool, and after 5 minutes the fish were completely anesthetized. After 10 minutes the fish were removed to a recovery tank with fresh water. After 5 minutes in the recovery tank the fish had resumed normal behavior.
The experiment of Example 21 was repeated, using four one-year old Ramirez fish of respective body lengths 3, 2.5, 3 and 3.5 cm, and adding the Ho Wood oil to a linalool concentration of 50 ppm in the water. […] At 2.5 minutes the fish were removed to a recovery tank with clean water. After 7 minutes in the recovery tank they swam around and appeared to have resumed normal activity.
The experiment of Example 21 was repeated, using four 1-year old Ramirez fish of respective body lengths 3, 3.5, 3.5 and 4 cm, and adding the Ho Wood oil to a linalool concentration in the water of 75 ppm instead 50 ppm. […] At 1.5 minutes the fish were removed to a recovery tank with clean water. After 7 minutes in the recovery tank the fish swam around and appeared to have resumed normal activity.

[3] = tested on: goldfish; assay: Anesthesia of goldfish by linalool or Ho Wood oil added to tank water; assay type: in vivo, Carassius auratus auratus
Method: as §1
(§2) The experiment of Example 1 was repeated, using a one year old goldfish of 8.5 cm body length. […] At 9.5 minutes the fish was removed to a recovery tank with clean water. Thereafter it recovered slowly and after 35 minutes was swimming around in the tank and appeared to have resumed normal activity.
as §2, with “length, and adding the linalool formulation to a linalool concentration in the water of 75 ppm instead of 50 ppm. After 2 minutes of exposure to linalool the fish appeared to be in stress.” for “length.”, “20” for “9.5”, “activity. […]” for “activity.”
This example illustrates the effects of Linalool on Goldfish (cold water fish). The experiment was performed in a four liter tank with three 10-month old goldfish of respective weights 32 g, 30 g and 34 g and respective body lengths of 12.5 cm, 11.5 cm and 11 cm. The water temperature was 16° C. and the pH was 7. A formulation containing 1% Linalool was added to the water to a concentration of 50 ppm linalool in the water. The fish became relaxed 5 minutes after introduction of the linalool, and after 6 5 minutes there fish were completely anesthetized. After 20 minutes of exposure to linalool, the fish were removed to a recovery tank with fresh water. 15 minutes thereafter the fish had resumed normal behavior. […]
The experiment of Example 1 was repeated, using two one-year old goldfish of respective body lengths 8.5 and 7.5 cm and respective weights of 17 and 15 g, and adding the a natural source of linalool (Ho Wood oil) to a concentration of 75 ppm linalool instead of 50 ppm. […] At 4 minutes the fish were removed to a recovery tank with clean water. After 5 minutes in the recovery tank they swam around and appeared to have resumed normal activity.
The experiment of Example 21 was repeated, using two one-year old goldfish of respective body lengths 9 and 8 cm and respective weights 19 and 17.5 g, but adding Ho Wood oil to a linalool concentration of 50 ppm in the water. […] At 16.5 minutes the fish were removed to a recovery tank with clean water. After 4 minutes in the recovery tank they swam around and appeared to have resumed normal activity.

[4] = Example 12: five Ramirez fish 0.7-0.85 g, experiment of example 9 (50 ppm linalool), 26° C., pH 7
[5] = Example 4: goldfish 8.5 cm, 50 ppm linalool in water
[6] = Example 5: goldfish 8.5 cm, 75 ppm linalool in water
[7] = Example 6: goldfish 8 cm, 100 ppm linalool in water
[8] = Example 11: three goldfish 25-27.5 g, 100 ppm linalool

For C=CC(C)(O)CCC=C(C)C (stereo not shown) [linalool], the effect of exposure ([1]; fish exposed to 25 ppm linalool, even for long periods of time) was “unaffected”, the survival ([1]; fish left for 40 minutes in 100 ppm linalool) was “did not survive” and the survival ([1]; fish left for 50 minutes in 75 ppm linalool) was “did not survive”. For the same molecule, the anesthesia ([1]; fish left for five minutes in 100 ppm linalool) was “effectively anesthetized”, the “mortality during a further three days of observation” value ([2]; Example 7: five Ramirez fish 3.5-4 cm, experiment of Example 1 repeated) was “no mortality occurred” and the “time in recovery tank until normal behavior resumed” value ([2]; Example 12: Ramirez fish, 26° C., removed after 10 minutes) was 5 min. For the same molecule, the “time after addition of linalool until fish became relaxed” value [2, 4] was 2 min, the “time until fish completely anesthetized” value [2, 4] was 5 min and the “time of exposure until complete loss of equilibrium” value [3, 5] was 6.5 min. The “time of exposure until no response to external stimulation” value (from here on “time of exposure until no response”) [3, 5] was 9 min, the “time of exposure until partial loss of equilibrium” value [3, 5] was 5 min and the “time in recovery tank until normal activity resumed” value ([3]; Example 4: goldfish 8.5 cm, 50 ppm linalool, removed to clean water at 9.5 minutes) was 35 min. The “time of exposure until complete loss of equilibrium” value [3, 6] was 5 min, the “time of exposure until no response” value [3, 6] was 9 min and the “time of exposure until partial loss of equilibrium” value [3, 6] was 2.5 min. For the same molecule, the “time in recovery tank until normal activity resumed” value ([3]; Example 5: goldfish 8.5 cm, 75 ppm linalool, removed to clean water at 20 minutes) was 35 min, the “time of exposure until complete loss of equilibrium” value [3, 7] was 2 min and the “time of exposure until no response” value [3, 7] was 3.5 min. For the same molecule, the “time of exposure until partial loss of equilibrium” value [3, 7] was 1.5 min, the “time in recovery tank until normal activity resumed” value ([3]; Example 6: goldfish 8 cm, 100 ppm linalool, removed to clean water at 4 minutes) was 35 min and the “mortality during a further three days of observation” value ([3]; Example 7: three goldfish, average 12.5 cm, experiment of Example 1 repeated) was “no mortality occurred”. For the same molecule, the “time in recovery tank until normal behavior resumed” value ([3]; Example 9: goldfish, 50 ppm linalool, 16° C., removed after 20 minutes of exposure) was 15 min, the “time after introduction of linalool until fish became relaxed” value ([3]; Example 9: three goldfish 30-34 g, 50 ppm linalool, 16° C., pH 7) was 5 min and the “time in recovery tank until normal behavior resumed” value ([3]; Example 10: goldfish, 75 ppm linalool, 16° C., removed at 20 minutes) was 35 min. For the same molecule, the “time until fish completely anesthetized” value ([3]; Example 10: three goldfish 25-27 g, 75 ppm linalool, 16° C., pH 7) was 5 min, the “time in recovery tank until normal behavior resumed” value ([3]; Example 11: goldfish, 100 ppm linalool, removed at 4 minutes) was 20 min and the “time after addition of linalool until fish became relaxed” value [3, 8] was 1.5 min. For the same molecule, the “time until fish completely anesthetized” value [3, 8] was 2 min.
